According to ChEMBL document CHEMBL1150717, “5'-Hydroxyisoavrainvilleol, a new diphenylmethane derivative from the tropical green alga Avrainvillea nigricans” (J Nat Prod, 1987):
In brackets after ≈: the same amount, converted by molar mass. Activity calls are given as the source filed them. No cut-off for these calls is given here.

How the values were obtained:
[1] = test system: Bacillus subtilis; test: Antimicrobial activity against Bacillus subtilis at 100 ug/disk by paper disk antibiotic sensitivity assay; assay type: functional; conditions: read-out: IZ
[2] = test system: Candida albicans; test: Antimicrobial activity against Candida albicans at 100 ug/disk by paper disk antibiotic sensitivity assay; assay type: functional, organism-based
[3] = test system: Bacillus subtilis; test: Antimicrobial activity against Bacillus subtilis at 25 ug/disk by paper disk antibiotic sensitivity assay; assay type: functional; conditions: read-out: IZ
[4] = test system: Pseudomonas aeruginosa; test: Antimicrobial activity against Pseudomonas aeruginosa at 100 ug/disk by paper disk antibiotic sensitivity assay; assay type: functional
[5] = test system: Carassius auratus; test: Toxicity in goldfish at 10 ug/ml; assay type: organism-based; conditions: in vivo
[6] = test system: Escherichia coli; test: Antimicrobial activity against Escherichia coli at 100 ug/disk by paper disk antibiotic sensitivity assay; assay type: functional, organism-based
[7] = test system: Staphylococcus aureus; test: Antimicrobial activity against Staphylococcus aureus at 100 ug/disk by paper disk antibiotic sensitivity assay; assay type: functional; conditions: read-out: IZ
[8] = test system: Serratia marcescens; test: Antimicrobial activity against Serratia marcescens at 100 ug/disk by paper disk antibiotic sensitivity assay; assay type: functional
[9] = test system: Bacillus subtilis; test: Antimicrobial activity against Bacillus subtilis at 50 ug/disk by paper disk antibiotic sensitivity assay; assay type: functional; conditions: read-out: IZ
[10] = test system: Serratia marcescens; test: Antimicrobial activity against Serratia marcescens at 200 ug/disk by paper disk antibiotic sensitivity assay; assay type: functional; conditions: read-out: IZ
[11] = test system: Staphylococcus aureus; test: Antimicrobial activity against Staphylococcus aureus at 50 ug/disk by paper disk antibiotic sensitivity assay; assay type: functional; conditions: read-out: IZ
[12] = test system: Escherichia coli; test: Antimicrobial activity against Escherichia coli at 200 ug/disk by paper disk antibiotic sensitivity assay; assay type: functional; conditions: read-out: IZ
[13] = test system: Pseudomonas aeruginosa; test: Antimicrobial activity against Pseudomonas aeruginosa at 200 ug/disk by paper disk antibiotic sensitivity assay; assay type: functional; conditions: read-out: IZ
[14] = test system: Staphylococcus aureus; test: Antimicrobial activity against Staphylococcus aureus at 25 ug/disk by paper disk antibiotic sensitivity assay; assay type: functional; conditions: read-out: IZ
[15] = test system: Candida albicans; test: Antimicrobial activity against Candida albicans at 200 ug/disk by paper disk antibiotic sensitivity assay; assay type: functional; conditions: read-out: IZ
[16] = test system: KB; test: Cytotoxicity against human KB cells; assay type: functional; conditions: read-out: ID50 (the source's name)

Structure (SMILES) | zone of inhibition at 100 µg/disc [1] [mm] | inhibition zone (IZ) [2] | zone of inhibition at 25 µg/disc [3] [mm] | inhibition zone (IZ) [4] | Activity [5] | inhibition zone (IZ) [6] | zone of inhibition at 100 µg/disc [7] [mm] | inhibition zone (IZ) [8] | zone of inhibition at 50 µg/disc [9] [mm] | zone of inhibition at 200 µg/disc [10] [mm] | zone of inhibition at 50 µg/disc [11] [mm] | zone of inhibition at 200 µg/disc [12] [mm] | zone of inhibition at 200 µg/disc [13] [mm] | zone of inhibition at 100 µg/disc ([4]; read-out: IZ) [mm] | zone of inhibition at 25 µg/disc [14] [mm] | zone of inhibition at 100 µg/disc ([8]; read-out: IZ) [mm] | zone of inhibition at 200 µg/disc [15] [mm] | IC50 [16] [mg/L]
OCc1cc(O)c(O)c(Br)c1Cc1cc(O)c(O)c(Br)c1 | 11 | inactive | 9 | inactive | Non-toxic | inactive | 10 | inactive | 10 | – | – | – | – | – | – | – | – | –
OCc1cc(O)c(O)c(Br)c1 | 12 | – | 8 | – | Non-toxic | – | 13 | – | 10 | 13 | 11 | 10 | 9 | 8 | 8 | 9 | 8 | 8.9 (≈ 40.6 µM)
OCc1cc(Br)c(O)c(O)c1Cc1ccc(O)c(Br)c1 [AVRAINVILLEOL] | 14 | inactive | 9 | inactive | Non-toxic | inactive | 16 | – | 12 | 9 | 12 | – | – | – | 10 | – | – | 10 (≈ 24.7 µM)
